In brackets after ≈: the same amount, converted by molar mass.
Experiments:
[1] = system: S. aureus SAUR 9213; test: MIC by standard agar dilution method, S. aureus; type: cell-based; settings: Staphylococcus aureus, SAUR9213, Mueller Hinton agar, overnight at 35° C.
Excerpt: (§1) The oxazolidinone antibacterial agents of this invention have useful activity against a variety of organisms. The in vitro activity of compounds of this invention can be assessed by standard testing procedures such as the determination of minimum inhibitory concentration (MIC) by agar dilution as described in “Approved Standard. Methods for Dilution Antimicrobial Susceptibility Tests for Bacteria That Grow Aerobically”, 3rd. ed., published 1993 by the National Committee for Clinical Laboratory Standards, Villanova, Pa., USA. The in vitro MICs of test compounds were determined by a standard agar dilution method. A stock drug solution of each analog was prepared in the preferred solvent, usually DMSO:H2O (1:3). Serial 2-fold dilutions of each sample are made using 1.0 ml aliquots of sterile distilled water. To each 1.0 ml aliquot of drug was added 9 ml of molten Mueller Hinton agar medium. The drug-supplemented agar was mixed, poured into 15×100 mm petri dishes, and allowed to solidify and dry prior to inoculation. Vials of each of the test organisms are maintained frozen in the vapor phase of a liquid nitrogen freezer. Test cultures are grown overnight at 35° C. on the medium appropriate for the organism. Colonies are harvested with a sterile swab, and cell suspensions are prepared in Trypticase Soy broth (TSB) to equal the turbidity of a 0.5 McFarland standard. A 1:20 dilution of each suspension was made in TSB. The plates containing the drug supplemented agar are inoculated with a 0.001 ml drop of the cell suspension using a Steers replicator, yielding approximately 10^4 to 10^5 cells per spot. The plates are incubated overnight at 35° C. Following incubation the Minimum Inhibitory Concentration (MIC μg/ml), the lowest concentration of drug that inhibits visible growth of the organism, was read and recorded.

[2] = system: S. pneumoniae SPNE 9912; test: MIC by standard agar dilution method, S. pneumoniae; type: cell-based; settings: Streptococcus pneumoniae, SPNE9912, Mueller Hinton agar, overnight at 35° C.
Excerpt: as §1

Row | Compound | MIC [1] | MIC [2] | melting point
1 | CCN1C(=O)C(F)(F)c2cc(N3C[C@H](C(N)=O)OC3=O)ccc21 [Example 3, (5R)-(−)-3-(3,3-difluoro-2,3-dihydro-1-ethyl-2-oxo-1H-indol-5-yl)-2-oxo-5-oxazolidinecarboxamide] | 8 µg/mL (≈ 24.6 µM) | 4 µg/mL (≈ 12.3 µM) | 201 to 203 °C
2 | CC(=O)NC[C@H]1CN(c2ccc3c(c2)C(F)(F)C(=O)N3C)C(=O)O1 [Example 5, N-[[(5S)-(−)-3-(3,3-Difluoro-2,3-dihydro-1-methyl-2-oxo-1H-indol-5-yl)-2-oxo-5-oxazolidinyl]methyl]acetamide] | 2 µg/mL (≈ 5.89 µM) | 1 µg/mL (≈ 2.95 µM) | 125 to 127 °C
3 | CCN1C(=O)C(F)(F)c2cc(N3C[C@H](CNC(C)=O)OC3=O)ccc21 [Example 6, N-[[(5S)-(−)-3-(3,3-Difluoro-2,3-dihydro-1-ethyl-2-oxo-1H-indol-5-yl)-2-oxo-5-oxazolidinyl]methyl]acetamide] | 8 µg/mL (≈ 22.6 µM) | 2 µg/mL (≈ 5.66 µM) | 139 to 141 °C
4 | CN1C(=O)C(F)(F)c2cc(N3C[C@H](C(N)=O)OC3=O)ccc21 [Example 2, (5R)-(−)-3-(3,3-difluoro-2,3-dihydro-1-methyl-2-oxo-1H-indol-5-yl)-2-oxo-5-oxazolidinecarboxamide] | 2 µg/mL (≈ 6.43 µM) | 1 to 2 µg/mL (≈ 3.21 to 6.43 µM) | 274 to 277 °C (dec.)
5 | CNC(=O)[C@H]1CN(c2ccc3c(c2)C(F)(F)C(=O)N3C)C(=O)O1 [Example 1, (5R)-(−)-3-(3,3-Difluoro-2,3-dihydro-1-methyl-2-oxo-1H-indol-5-yl)-N-methyl-2-oxo-5-oxazolidinecarboxamide] | 2 µg/mL (≈ 6.15 µM) | 2 µg/mL (≈ 6.15 µM) | 242.5 to 245 °C
6 | CCN1C(=O)C(F)(F)c2cc(N3C[C@H](C(=O)NC)OC3=O)ccc21 [Example 4, (5R)-(−)-3-(3,3-Difluoro-2,3-dihydro-1-ethyl-2-oxo-1H-indol-5-yl)-N-methyl-2-oxo-5-oxazolidinecarboxamide] | 8 µg/mL (≈ 23.6 µM) | 4 µg/mL (≈ 11.8 µM) | 211 to 213 °C
